The NIST ThermoML archive (doi:10.1021/je401118k)

Test: mn = molality of the nth substance listed, in mol/kg
Settings: for surface tension liquid-gas: Ring tensiometer; for electrical conductivity: 101 kPa, Liquid, Alternating current cell with electrodes

CC(=O)[O-].C[N+]1(CCC[Si](O[Si](C)(C)C)(O[Si](C)(C)C)O[Si](C)(C)C)CCCC1 + O
298.15 K
Settings	surface tension liquid-gas [mN/m]
m1 = 1e-06	70.5
m1 = 1e-05	58.2
m1 = 0.0001	47.1
m1 = 0.0002	42.4
m1 = 0.0004	36.9
m1 = 0.0006	32.1
m1 = 0.0008	29.7
m1 = 0.001	27.8
m1 = 0.002	23.5
m1 = 0.003	21.5
m1 = 0.004	20.2
m1 = 0.005	20
m1 = 0.006	20
m1 = 0.007	20
m1 = 0.008	20
m1 = 0.009	20

C[N+]1(CCC[Si](O[Si](C)(C)C)(O[Si](C)(C)C)O[Si](C)(C)C)CCCC1.O=[N+]([O-])[O-] + O
Settings	electrical conductivity, 288.15 K [S/m]	electrical conductivity, 293.15 K [S/m]	electrical conductivity, 298.15 K [S/m]	electrical conductivity, 303.15 K [S/m]	electrical conductivity, 308.15 K [S/m]	surface tension liquid-gas, 298.15 K [mN/m]
m1 = 1e-06	–	–	–	–	–	71.3
m1 = 1e-05	–	–	–	–	–	67.8
m1 = 0.0001	–	–	–	–	–	54.3
m1 = 0.0006	–	–	–	–	–	42
m1 = 0.0008	0.00614	0.00666	0.00734	0.00801	0.00864	–
m1 = 0.0009	0.00682	0.00744	0.00818	0.00894	0.00984	–
m1 = 0.001	0.00733	0.0081	0.00888	0.00967	0.01058	37.4
m1 = 0.002	0.0143	0.01556	0.01717	0.01881	0.0212	33.3
m1 = 0.003	0.0209	0.0231	0.0255	0.0279	0.0302	30.3
m1 = 0.004	0.0264	0.0291	0.0321	0.0354	0.0388	27.6
m1 = 0.005	0.0282	0.031	0.0348	0.0392	0.0438	26.1
m1 = 0.006	0.03	0.0329	0.0367	0.0414	0.0466	25.1
m1 = 0.007	0.0312	0.0343	0.0382	0.043	0.0486	24
m1 = 0.008	0.0324	0.0354	0.0396	0.0447	0.0502	23.3
m1 = 0.009	0.0335	0.0369	0.041	0.0464	0.0525	23
m1 = 0.01	–	–	–	–	–	22.4
m1 = 0.015	–	–	–	–	–	21.4
m1 = 0.02	–	–	–	–	–	21.2
m1 = 0.025	–	–	–	–	–	21.3
m1 = 0.03	–	–	–	–	–	21.2
